`O=C1Cc2ccccc2N1` showed a solubility (mole fraction) (in 1,4-dioxane, 287.15 K) of 0.276, a solubility (mole fraction) (in 1,4-dioxane, 292.15 K) of 0.309 and a solubility (mole fraction) (in 1,4-dioxane, 296.15 K) of 0.336. For the same molecule, the solubility (mole fraction) (in 1,4-dioxane, 300.15 K) was 0.363, the solubility (mole fraction) (in 1,4-dioxane, 304.15 K) was 0.394 and the solubility (mole fraction) (in 1,4-dioxane, 308.65 K) was 0.421. It also gave a solubility (mole fraction) (in 1,4-dioxane, 311.65 K) of 0.448, a solubility (mole fraction) (in 1,4-dioxane, 315.35 K) of 0.475 and a solubility (mole fraction) (in 1,4-dioxane, 319.05 K) of 0.502. The solubility (mole fraction) (in 1,4-dioxane, 323.15 K) was 0.529, the solubility (mole fraction) (in 1,4-dioxane, 328.15 K) was 0.567 and the solubility (mole fraction) (in THF, 293.85 K) was 0.0116. The solubility (mole fraction) (in THF, 298.65 K) was 0.0133, the solubility (mole fraction) (in THF, 302.95 K) was 0.0155 and the solubility (mole fraction) (in THF, 307.25 K) was 0.0181. The solubility (mole fraction) (in THF, 312.55 K) was 0.021, the solubility (mole fraction) (in THF, 317.05 K) was 0.0243 and the solubility (mole fraction) (in THF, 321.35 K) was 0.0276. It also gave a solubility (mole fraction) (in THF, 327.35 K) of 0.0327, a solubility (mole fraction) (in THF, 333.95 K) of 0.0397 and a solubility (mole fraction) (in acetone, 288.15 K) of 0.0498. The solubility (mole fraction) (in acetone, 294.05 K) was 0.0602, the solubility (mole fraction) (in acetone, 299.35 K) was 0.0707 and the solubility (mole fraction) (in acetone, 304.55 K) was 0.0812. It also gave a solubility (mole fraction) (in acetone, 309.65 K) of 0.0919, a solubility (mole fraction) (in acetone, 314.45 K) of 0.102 and a solubility (mole fraction) (in acetone, 319.55 K) of 0.112. It also gave a solubility (mole fraction) (in acetone, 325.55 K) of 0.122, a solubility (mole fraction) (in acetone, 328.25 K) of 0.127 and a solubility (mole fraction) (in acetonitrile, 287.15 K) of 0.0508. The solubility (mole fraction) (in acetonitrile, 292.15 K) was 0.0628, the solubility (mole fraction) (in acetonitrile, 296.15 K) was 0.0748 and the solubility (mole fraction) (in acetonitrile, 300.15 K) was 0.0869. It also gave a solubility (mole fraction) (in acetonitrile, 304.15 K) of 0.101, a solubility (mole fraction) (in acetonitrile, 308.65 K) of 0.123 and a solubility (mole fraction) (in acetonitrile, 311.65 K) of 0.146. For the same molecule, the solubility (mole fraction) (in acetonitrile, 315.35 K) was 0.171, the solubility (mole fraction) (in acetonitrile, 319.05 K) was 0.196 and the solubility (mole fraction) (in acetonitrile, 323.15 K) was 0.227. It also gave a solubility (mole fraction) (in acetonitrile, 328.15 K) of 0.285, a solubility (mole fraction) (in dichloromethane, 288.15 K) of 0.0353 and a solubility (mole fraction) (in dichloromethane, 292.15 K) of 0.0383. It also gave a solubility (mole fraction) (in dichloromethane, 296.15 K) of 0.0419, a solubility (mole fraction) (in dichloromethane, 300.15 K) of 0.0452 and a solubility (mole fraction) (in dichloromethane, 304.15 K) of 0.0485. It also gave a solubility (mole fraction) (in dichloromethane, 308.65 K) of 0.0519, a solubility (mole fraction) (in dichloromethane, 311.65 K) of 0.0552 and a solubility (mole fraction) (in ethanol, 291.95 K) of 0.00842. For the same molecule, the solubility (mole fraction) (in ethanol, 297.95 K) was 0.0134, the solubility (mole fraction) (in ethanol, 302.95 K) was 0.0186 and the solubility (mole fraction) (in ethanol, 307.65 K) was 0.0253. It also gave a solubility (mole fraction) (in ethanol, 312.55 K) of 0.0324, a solubility (mole fraction) (in ethanol, 318.05 K) of 0.0458 and a solubility (mole fraction) (in ethanol, 322.65 K) of 0.0568. It also gave a solubility (mole fraction) (in ethanol, 327.95 K) of 0.0742, a solubility (mole fraction) (in ethanol, 332.65 K) of 0.0952 and a solubility (mole fraction) (in ethyl acetate, 287.15 K) of 0.141. For the same molecule, the solubility (mole fraction) (in ethyl acetate, 292.15 K) was 0.156, the solubility (mole fraction) (in ethyl acetate, 296.15 K) was 0.169 and the solubility (mole fraction) (in ethyl acetate, 300.15 K) was 0.184. The solubility (mole fraction) (in ethyl acetate, 304.15 K) was 0.198, the solubility (mole fraction) (in ethyl acetate, 308.65 K) was 0.215 and the solubility (mole fraction) (in ethyl acetate, 311.65 K) was 0.233. The solubility (mole fraction) (in ethyl acetate, 315.35 K) was 0.247, the solubility (mole fraction) (in ethyl acetate, 319.05 K) was 0.27 and the solubility (mole fraction) (in ethyl acetate, 323.15 K) was 0.287. For the same molecule, the solubility (mole fraction) (in ethyl acetate, 328.15 K) was 0.32, the solubility (mole fraction) (in isopropanol, 291.95 K) was 0.00673 and the solubility (mole fraction) (in isopropanol, 297.95 K) was 0.00919. The solubility (mole fraction) (in isopropanol, 303.05 K) was 0.0122, the solubility (mole fraction) (in isopropanol, 308.35 K) was 0.0155 and the solubility (mole fraction) (in isopropanol, 313.15 K) was 0.0192. For the same molecule, the solubility (mole fraction) (in isopropanol, 317.45 K) was 0.0232, the solubility (mole fraction) (in isopropanol, 322.15 K) was 0.0287 and the solubility (mole fraction) (in isopropanol, 328.35 K) was 0.0355. The solubility (mole fraction) (in isopropanol, 333.35 K) was 0.0443, the solubility (mole fraction) (in methanol, 291.95 K) was 0.00441 and the solubility (mole fraction) (in methanol, 297.95 K) was 0.00563. The solubility (mole fraction) (in methanol, 302.95 K) was 0.00688, the solubility (mole fraction) (in methanol, 307.65 K) was 0.00821 and the solubility (mole fraction) (in methanol, 312.55 K) was 0.00977. It also gave a solubility (mole fraction) (in methanol, 317.45 K) of 0.0119, a solubility (mole fraction) (in methanol, 322.15 K) of 0.0137 and a solubility (mole fraction) (in methanol, 327.35 K) of 0.0163. It also gave a solubility (mole fraction) (in methanol, 332.35 K) of 0.019, a solubility (mole fraction) (in n-butanol, 293.85 K) of 0.00297 and a solubility (mole fraction) (in n-butanol, 298.65 K) of 0.00379. It also gave a solubility (mole fraction) (in n-butanol, 302.95 K) of 0.00468, a solubility (mole fraction) (in n-butanol, 307.25 K) of 0.00546 and a solubility (mole fraction) (in n-butanol, 312.55 K) of 0.00674. For the same molecule, the solubility (mole fraction) (in n-butanol, 317.05 K) was 0.00793, the solubility (mole fraction) (in n-butanol, 321.35 K) was 0.00952 and the solubility (mole fraction) (in n-butanol, 327.35 K) was 0.0115. The solubility (mole fraction) (in n-butanol, 333.95 K) was 0.0143, the solubility (mole fraction) (in n-propanol, 293.15 K) was 0.0387 and the solubility (mole fraction) (in n-propanol, 299.35 K) was 0.0476. The solubility (mole fraction) (in n-propanol, 303.05 K) was 0.0523, the solubility (mole fraction) (in n-propanol, 308.35 K) was 0.0599 and the solubility (mole fraction) (in n-propanol, 313.15 K) was 0.0677. The solubility (mole fraction) (in n-propanol, 317.05 K) was 0.0744, the solubility (mole fraction) (in n-propanol, 320.75 K) was 0.0814 and the solubility (mole fraction) (in n-propanol, 328.35 K) was 0.0976. The solubility (mole fraction) (in n-propanol, 333.35 K) was 0.109, the solubility (mole fraction) (in toluene, 291.95 K) was 0.00318 and the solubility (mole fraction) (in toluene, 297.95 K) was 0.00526. It also gave a solubility (mole fraction) (in toluene, 302.95 K) of 0.00796, a solubility (mole fraction) (in toluene, 307.65 K) of 0.0121 and a solubility (mole fraction) (in toluene, 312.55 K) of 0.018. The solubility (mole fraction) (in toluene, 317.45 K) was 0.0258, the solubility (mole fraction) (in toluene, 322.15 K) was 0.0389 and the solubility (mole fraction) (in toluene, 327.35 K) was 0.0615. For the same molecule, the solubility (mole fraction) (in toluene, 332.05 K) was 0.0848.

Source: BigSolDB 2.1
